# According to the supplement of paper PMC10307832:
# Legend:
# Test in all cases: relative viability (nuclei count vs DMSO), 5 days (fraction); higher = more cells survive
# [1] = compound: C1COCCN1C2=NC(=NC3=C2OC4=C3C=CC=N4)C5=CC(=CC=C5)NC(=O)C6=CN=C(C=C6)N + Cc1nc(NC(=O)N2CCC[C@H]2C(N)=O)sc1-c1ccnc(C(C)(C)C(F)(F)F)c1 [Alpelisib] (partner 2 µM)
# Outline: (§1)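 Lung cancer cell lines, seeded in 1536-well plates, were treated the following day by pin tool with a single drug or with five library-drug doses (not always all listed) in √10 steps on top of a fixed anchor-drug dose. Cells were fixed and nuclei stained in one step after 5 days, and nuclei were counted. Relative viability is the nuclei count for treated wells divided by that for vehicle wells, reported as medians of duplicate plates.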
# SGI-1776 + Olaparib = compound: CN1CCC(CNc2ccc3ncc(-c4cccc(OC(F)(F)F)c4)n3n2)CC1 [SGI-1776] + O=C(c1cc(Cc2n[nH]c(=O)c3ccccc23)ccc1F)N1CCN(C(=O)C2CC2)CC1 [Olaparib] (partner 8 µM)
# Outline: as §1
# SGI-1776 + Trametinib = compound: CN1CCC(CNc2ccc3ncc(-c4cccc(OC(F)(F)F)c4)n3n2)CC1 [SGI-1776] + CC(=O)Nc1cccc(-n2c(=O)n(C3CC3)c(=O)c3c(Nc4ccc(I)cc4F)n(C)c(=O)c(C)c32)c1 [Trametinib] (partner 0.02 µM)
# Outline: as §1
# Entinostat + Lapatinib = compound: Nc1ccccc1NC(=O)c1ccc(CNC(=O)OCc2cccnc2)cc1 [Entinostat] + CS(=O)(=O)CCNCc1ccc(-c2ccc3ncnc(Nc4ccc(OCc5cccc(F)c5)c(Cl)c4)c3c2)o1 [Lapatinib] (partner 2 µM)
# Outline: as §1
Cell Line,relative viability ([1]; first compound 0.02 µM),relative viability ([1]; first compound 0.06325 µM),relative viability ([1]; first compound 0.2 µM),relative viability ([1]; first compound 0.6325 µM),relative viability ([1]; first compound 2 µM),relative viability (SGI-1776 + Olaparib; first compound 0.08 µM),relative viability (SGI-1776 + Olaparib; first compound 0.8 µM),relative viability (SGI-1776 + Olaparib; first compound 2.53 µM),relative viability (SGI-1776 + Olaparib; first compound 8 µM),relative viability (SGI-1776 + Trametinib; first compound 0.08 µM),relative viability (SGI-1776 + Trametinib; first compound 0.8 µM),relative viability (SGI-1776 + Trametinib; first compound 2.53 µM),relative viability (SGI-1776 + Trametinib; first compound 8 µM),relative viability (Entinostat + Lapatinib; first compound 0.02 µM),relative viability (Entinostat + Lapatinib; first compound 0.06325 µM),relative viability (Entinostat + Lapatinib; first compound 0.2 µM),relative viability (Entinostat + Lapatinib; first compound 0.6325 µM),relative viability (Entinostat + Lapatinib; first compound 2 µM)
LK-2,1.07,1.15,1.2,1.06,0.856,0.783,0.768,0.717,0.579,0.778,0.69,0.63,0.708,0.98,1.05,1.01,0.476,0.459
LOU-NH91,0.696,0.728,0.768,0.749,0.667,0.968,0.986,0.957,0.773,0.808,0.766,0.806,0.695,0.781,0.848,0.769,0.765,0.561
LU99A,0.608,0.46,0.41,0.379,0.284,0.304,0.312,0.305,0.238,0.62,0.594,0.542,0.515,0.957,1.04,0.863,0.617,0.592
LXF-289,1.12,1.09,1.02,1,0.785,0.966,1.12,1.1,1.03,0.68,0.64,0.668,0.606,0.884,0.916,0.841,0.647,0.481
NCI-H23,0.661,0.822,0.66,0.772,0.491,0.32,0.331,0.299,0.332,0.328,0.29,0.372,0.304,1.17,1.13,1.02,0.616,0.476
NCI-H322M,0.81,0.773,0.768,0.638,0.665,0.871,0.772,0.812,0.697,0.524,0.506,0.485,0.487,0.643,0.612,0.623,0.647,0.621
NCI-H358,0.928,0.925,0.783,0.943,0.486,0.648,0.605,0.569,0.403,0.14,0.146,0.128,0.123,0.467,0.438,0.521,0.367,0.287
NCI-H460,0.393,0.5,0.395,0.349,0.0947,0.503,0.482,0.431,0.481,0.127,0.162,0.208,0.154,1,0.761,0.462,0.0242,0.0172
NCI-H520,0.914,0.923,0.971,1.02,0.406,0.36,0.318,0.386,0.203,0.773,0.816,0.686,0.544,1.03,0.946,0.864,0.776,0.301
NCI-H596,0.497,0.51,0.691,0.51,0.394,0.662,1,0.82,0.696,0.797,0.733,0.782,0.678,1.06,1.13,1.07,0.81,0.709
NCI-H647,1.21,1.33,0.996,1.21,0.356,0.67,0.484,0.438,0.206,0.621,0.441,0.56,0.323,0.936,0.868,0.996,0.322,0.101
NCI-H650,1.07,1.12,1.06,1.04,0.824,0.455,0.409,0.438,0.326,1.09,1.01,0.965,0.869,1.02,1.24,0.976,0.543,0.199
NCI-H661,0.703,0.698,0.664,0.531,0.728,0.733,0.754,0.843,0.846,0.596,0.534,0.525,0.466,0.573,0.587,0.8,0.661,0.476
NCI-H727,0.472,0.418,0.51,0.693,0.341,0.69,0.639,0.659,0.679,0.454,0.38,0.391,0.372,0.941,0.804,0.793,0.533,0.451
NCI-H838,1.12,0.945,0.923,0.968,0.524,0.776,0.754,0.695,0.56,0.519,0.534,0.414,0.385,1.13,1.12,0.983,0.696,0.255
NCI-H1355,0.833,0.933,0.858,0.747,0.759,0.749,0.695,0.78,0.687,0.444,0.408,0.408,0.41,1.03,0.978,0.798,0.568,0.513
NCI-H1395,1.03,1.03,0.998,1.45,0.89,0.473,0.452,0.438,0.347,1.16,0.984,0.951,0.887,1.1,1.21,0.901,0.566,0.569
NCI-H1437,0.952,1.09,0.788,0.962,0.423,0.65,0.618,0.6,0.552,0.565,0.524,0.361,0.301,0.671,0.399,0.297,0.183,0.126
NCI-H1651,0.904,0.915,0.899,0.897,0.443,0.205,0.187,0.18,0.174,0.806,0.852,0.843,0.746,0.816,0.905,0.925,0.726,0.217
NCI-H1666,1.02,0.906,0.794,0.775,0.549,0.794,0.782,0.838,0.729,0.95,0.846,0.935,0.842,0.624,0.564,0.566,0.282,0.264
NCI-H1734,0.722,0.684,0.616,0.688,0.598,0.69,0.691,0.715,0.567,0.686,0.742,0.786,0.603,1.16,1.11,1.05,0.787,0.481
NCI-H1755,1.07,1,0.965,0.863,0.397,0.913,0.848,0.798,0.671,0.802,0.741,0.762,0.651,1.02,1.02,0.95,0.532,0.264
NCI-H1792,0.55,0.717,0.768,0.351,0.358,0.623,0.533,0.429,0.453,0.446,0.446,0.437,0.324,0.953,0.96,0.836,0.767,0.513
NCI-H1793,0.812,0.842,0.655,0.852,0.59,0.87,0.99,0.864,0.8,0.418,0.518,0.589,0.444,0.695,1.07,0.617,0.393,0.328
NCI-H1915,1.01,1.17,1.08,1.05,0.971,0.256,0.265,0.248,0.23,0.317,0.281,0.309,0.277,0.985,1.05,1.01,0.633,0.315
NCI-H1944,0.894,0.705,0.851,0.782,0.731,0.411,0.406,0.422,0.354,0.389,0.408,0.426,0.378,0.851,0.768,0.787,0.354,0.271
NCI-H1975,0.677,0.705,0.548,0.567,0.352,0.877,0.791,0.73,0.638,0.389,0.33,0.325,0.313,0.812,0.801,0.669,0.274,0.189
NCI-H1993,0.651,0.624,0.691,0.697,0.595,0.989,0.943,1.01,0.955,0.576,0.496,0.765,0.538,0.749,0.911,0.867,0.728,0.69
NCI-H2009,1.26,1.24,1.16,1.11,0.838,0.714,0.769,0.688,0.623,0.345,0.303,0.234,0.175,0.954,0.984,0.827,0.685,0.396
